SMILES strings stand for the structures.

Format in all cases: cell-based
Experiment [1] relates to human lung cancer NCI-H460 cell. Description: MTT proliferation assay, NCI-H460. The conditions noted are these: NCI-H460, 96 h, MTT, 4 days, read-out: IC50 (nM), proliferation of NCI-H460 cell. As to the method:
The cells were digested by trypsinase and centrifuged at 800 rpm for 5 minutes, the supernatant was discarded, and the residual was resuspended with fresh medium […]) and counted.
(§1) The cells were seeded into 96-well cell culture plate with a density of 2000/4000 cells per well and incubated overnight in a 5% CO2 incubator at 37° C. […] 5 μL diluent of each concentration was added to 120 μL of medium (25 times diluted) and mixed by shaking. The overnight cell plates were taken and the culture medium was removed, 195 μL of fresh medium was added to each well, and 5 μL of diluted medium containing the corresponding concentration of the test compound was added respectively (the final concentration of DMSO is 1%), and the culture plate was then placed in a 5% CO2 incubator at 37° C. for 4 days. After removing the original solution, 100 μL of fresh serum-free DMEM medium containing MTT (0.5 mg/mL) was added to each well, the culture was continued. […] Cell viability (%)=(ODcompound−ODbackground)/(ODDMSO−ODbackground)×100. GraphPad Prism 6.0 was used to analyze the data. The inhibitory activity of compounds on cell proliferation was plotted based on cell viability and the logarithm of compound concentration. The IC50 value was fitted by a sigmoidal dose response curve equation Y−100/(1+10^(LogC−LogIC50)), wherein C was the concentration of compound.
(In general: Formazan colour is commonly taken as a measure of viable cells.)

Experiment [2] has as its system human colon cancer LoVo cell. Description: MTT proliferation assay, LoVo. The conditions noted are these: Homo sapiens, LoVo, 96 h, MTT, 4 days; read-out: IC50 (nM), proliferation of LoVo cell. The protocol: as §1, with “[…]” for “100 μL”, “viability (%)=(ODcompound−ODbackground)/ODDMSO−ODbackground)×100.” for “viability (%)=(ODcompound−ODbackground)/(ODDMSO−ODbackground)×100.”, “The IC5.0” for “The IC50”, “equation Y=100/(1+10^(LogC-LogIC50)),” for “equation Y−100/(1+10^(LogC−LogIC50)),”

The test system of experiment [3] is HCT116 (human colorectal adenocarcinoma cell). The experiment is described as follows: MTT proliferation assay of Example 1, HCT116. The conditions noted are these: HCT-116, 96 h, 4 days. The protocol:
(§2) The cells were digested by trypsinase and centrifuged at 800 rpm for 5 minutes, the supernatant was discarded, and the residual was resuspended with fresh medium (1640 medium+10% FRS) and counted. The cells were seeded into 96well cell culture plate with a density of 2000/4000 cells per well and incubated overnight in a 5% CO2 incubator at 37° C. The stock solutions of the test substances were serially diluted to 8 concentrations by DMSO at the ratios of 1:3 and 1:10, respectively. 5 μL diluent of each concentration was added to […] (25 times diluted) and mixed by shaking. The overnight cell plates were taken and the culture medium was removed, 195 μL of fresh medium was added to each well, and 5 μL of diluted medium containing the corresponding concentration of the test compound was added respectively (the final concentration of DMSO is 1%), and the culture plate was then placed in a 5% CO2 incubator at 37° C for 4 days. After removing the original solution, […] of fresh serum-free DMEM medium containing MTT (0.5 mg/mL) was added to each well, the culture was continued. After 4 hours, the original solution was removed, 100 μL, of DMSO was added to each well, the 96-well plates were shaken for 10 minutes in the dark and placed in a multi-function reader to read the absorbance at the wavelength of 552/690 nm. […]

The subject of experiment [4] is human ovarian cancer OVCAR-3 cell. The experiment is described as follows: MTT proliferation assay of Example 1, OVCAR-3. The settings on record: OVCAR-3, 96 h, 4 days. As to the method:
as §2

Experiment [5] deals with human large cell lung cancer NCI-H460 cell. Description: MTT proliferation assay of Example 1, NCI-H460. The settings on record: NCI-H460, 96 h, 4 days. The protocol:
as §2

In the case of `Cc1nc(-c2ccn[nH]2)n2nc(N3CCOC[C@H]3C)cc(-c3ccnn3C)c12` [Example 1, (R)-3-methyl-4-(5-methyl-4-(1-methyl-1H-pyrazol-5-yl)-7-(1H-pyrazol-5-yl)imidazo[1,5-b]pyridazin-2-yl)morpholine], the IC50 was determined as 16.5 nM in experiment [1]; 26.7 nM in experiment [2]; 22.5 nM in experiment [3]; 182 nM in experiment [4]; 19 nM in experiment [5].

The record behind these values is patent US20240059695A1, “SUBSTITUTED IMIDAZO[1,5-b]PYRIDAZINE COMPOUNDS AS KINASE INHIBITORS AND USE THEREOF” (IMPACT THERAPEUTICS (SHANGHAI), INC, priority 2020, published 2024).
